# According to patent US10709704B2, “Treating neural disease with tyrosine kinase inhibitors” (GEORGETOWN UNIVERSITY, priority 2012, dated 2020):
# What was measured:
# GFP-tagged TDP-43 = test: Distribution of GFP-tagged TDP-43 in M17 cells; assay type: cell-based, human; parameters: distribution of GFP-tagged TDP-43 / translocation of GFP-tagged TDP-43 with Nilotinib or Bosutinib: unit of the concentration uncertain; conditions: Nilotinib (10 µM) or Bosutinib (5 µM) for additional 24 hrs
# Procedure: Human neuroblastoma M17 cells (seeding density 2×10^5 cells) were grown in 24 well dishes (Falcon) to 70% confluence in Dulbecco's Modified Eagle Medium (DMEM; Invitrogen) plus 10% (v/v) heat-inactivated fetal bovine serum (Invitrogen), penicillin/streptomycin, and 2 mM L-glutamine at 37° C. and 5% CO2, washed twice in phosphate-buffered saline (PBS). Transient transfection was performed with 3 μg parkin cDNA or 3 μg TDP-43 cDNA, or 3 μg LacZ cDNA. Cells were treated with 5 μM tubacin for 24 hours and DAPI stained in 12 well dishes. Cells were harvested 24 hours after transfection. Transfection was performed in DMEM without serum using Lipofectamine 2000 (Invitrogen) according to the manufacturer's protocol. […] Western blot was performed on NuPAGE 4-12% Bis-Tris gel (Invitrogen). Protein estimation was performed using the microscale BioRad protein assay (BioRad Laboratories Inc, Hercules, Calif., USA).
# To ascertain that both parkin and HDAC6 are required for TDP-43 translocation, GFP-tagged TDP-43 was expressed in M17 neuroblastoma cells in the presence of wild type or loss-of-function mutant (T240R) parkin, and treated with 5 μM selective HDAC6 inhibitor for 24 hours.
# The following data support these conclusions.
# parkin = test: Parkin levels in neuroblastoma cells (ELISA, WB); assay type: cell-based
# Procedure: Human neuroblastoma M17 or rat B35 cells were grown in 24 well dishes (Falcon). Transient transfection was performed with 3 μg Aβ1-42 cDNA, or 3 μg LacZ cDNA for 24 hr. […] Cells were harvested 48 hr after transfection.
# Parkin levels were measured via ELISA using parkin−/− brain extracts as a specificity control (FIG. 66A).
# [1] = test system: Aβ1-42 plaques and intracellular Aβ1-42; test: Plaque and intracellular Aβ1-42 staining, lentiviral Aβ1-42 parkin−/− mice; assay type: in vivo, mouse
# Procedure: Immunohistochemistry was performed on 20 micron-thick 4% paraformaldehyde (PFA) fixed cortical brain sections. Aβ1-42 was probed (1:200) with rabbit polyclonal specific anti-Aβ1-42 antibody (Zymed) that recognizes a.a.1-42, and (1:200) mouse monoclonal antibody (4G8) that recognizes amino acid 17-24 (Covance) and counterstained with DAPI. Parkin was immunoprobed (1:200) with mouse anti-parkin (PRK8) antibody that recognizes amino acid 399-465 (Signet Labs, Dedham, Mass.) and rabbit polyclonal (1:200) anti-parkin (AB5112) antibody that recognizes amino acid 305-622 (Millipore) and counterstained with DAPI. Mouse monoclonal (6E10) antibody (1:100) with DAB were used (Covance) and thioflavin-S was performed according to manufacturer's instructions (Sigma).
# Stereological methods were applied by a blinded investigator using unbiased stereology analysis (Stereologer, Systems Planning and Analysis, Chester, Md.) as described in (20,36).
# [2] = test system: molecular markers of autophagy; test: Western blot of autophagy markers, lentiviral Aβ1-42 parkin−/− mice; assay type: in vivo, mouse
# [3] = test system: mice injected with lentiviral α-synuclein into the substantia nigra; test: Rotarod, lentiviral α-Synuclein mice; assay type: in vivo, mouse
# Source text: Mice were placed on an accelerating rotarod (Columbus Instruments) equipped with individual timers for each mouse. […] All values were converted to % control.
# Aβ1-42 parkin−/− mice = test: Novel object recognition, Aβ1-42 parkin−/− mice; assay type: in vivo, mouse; conditions: Aβ1-42 parkin−/− mice with or without Nilotinib
# Procedure: Mice were placed individually in a 22×32×30 cm testing chamber for a 5 min habituation interval and returned to their home cages. Thirty minutes later mice were placed in the testing chamber for 10 min with two identical objects (acquisition session), then returned to their home cages and […] placed back in the testing chamber in the presence with one of the original objects and one novel object of the same size but of a different color and shape (recognition session). Sessions were video recorded. Time spent exploring the objects were scored by blind observer. The recognition index was calculated as (time exploring one of the objects/time exploring both objects)×100 for acquisition session, and (time exploring new object/time exploring both familiar and novel objects)×100 for the recognition session. Statistical calculations to estimate differences between sessions were performed with a pairwise t-test.
# These experiments were repeated in 1 year old Tg-APP mice and age-matched control (C57BL/6).
smiles,measurement,setting,value
Cc1cn(-c2cc(NC(=O)c3ccc(C)c(Nc4nccc(-c5cccnc5)n4)c3)cc(C(F)(F)F)c2)cn1 [Nilotinib],distribution of GFP-tagged TDP-43,GFP-tagged TDP-43,translocation of GFP-tagged TDP-43 from nucleus (A) into the cytosol
same,"increase in parkin (ELISA), non-significant",parkin; 10 μM Nilotinib,17%
same,increase in parkin (ELISA),parkin; Aβ1-42 + Nilotinib,24%
same,increase in Nilotinib-induced parkin on blocking beclin-1 with shRNA (WB),parkin; shRNA beclin-1 + Nilotinib,28%
same,plaque size,[1]; Aβ1-42 parkin−/− mice + Nilotinib (DMSO 85 μm),79 μm
same,Aβ1-42 positive cells (stereological counting),[1]; Aβ1-42 parkin−/− mice + Nilotinib (DMSO N=14566),13250
same,plaque load,"[1]; Aβ1-42 parkin−/− mice, Nilotinib",did not reduce plaque load
same,Atg12 and Atg5 levels (WB),[2],not changed
same,LC3-II (WB),[2],did not clear
same,rotarod motor performance,[3]; lentiviral α-Synuclein mice + Nilotinib (DMSO 39%),86 % of LacZ level
same,motor performance (rotarod),"[3]; lentiviral α-synuclein mice, 10 mg/kg Nilotinib or 5 mg/Kg Bosutinib",improved motor performance
same,novel object recognition learning,Aβ1-42 parkin−/− mice,did not learn
